Experimental data reported in US20140228407A1, “TETRA-PYRIDINE COMPOUNDS AND COMPOSITION FOR PROTECTING CELLS, TISSUES AND ORGANS AGAINST ISCHEMIA-REPERFUSION INJURY” (YISSUM RESEARCH DEVELOPMENT COMPANY OF THE HEBREW …, priority 2011, published 2014).
Entries after “also recorded” stand apart in the source; their conditions may differ. Marks after values point to notes of the source that are not given here.

What was measured:
Assay type in all cases: in vivo
[1] = system: model of ischemia/reperfusion in the CD rat; assay: Mortality and adverse changes in Phase B of rat ischemia/reperfusion study
Method: (§1) This study was conducted to evaluate the effects of the Compound #6 on cardiac function, infarct size, and Troponin I levels in a model of ischemia/reperfusion in the CD® (CR1CD® (SD)) rat. Phase A was conducted for toxicity evaluation purposes. In Phase B (the efficacy phase), two treatment groups of eight male rats were administered Compound #6 at dose levels of 0.2 and 2 mg/kg via intravenous infusion following myocardial infarction. The 2 mg/kg dose of Compound #6 was administered intravenously via a slow infusion starting 3 to 14 minutes prior to reperfusion and continuing for 20 minutes to 20 minutes and 32 seconds, which was approximately 6 to 17 minutes after reperfusion (depending on the infusion start time). The 0.2 mg/kg dose of Compound #6 was administered intravenously via a slow infusion starting 10 minutes prior to reperfusion and continuing for 30 minutes to 30 minutes and 30 seconds, which was approximately 20 minutes after reperfusion.
The animals were placed on mechanical ventilation and not intubated. Once anesthetized, the animal was placed in a right lateral recumbency, an arterial catheter or polyethylene tube was placed in the carotid artery for monitoring blood pressure and a thoracotomy was performed. The left coronary artery (LCA) was identified. […] In Phase A, the animals were recovered from anesthesia and evaluated for 4 days. […]

[2] = system: model of ischemia/reperfusion in the CD rat; assay: Rat model of ischemia/reperfusion, infarct analysis (Phase B); details: for Infarct/AAR (%) Mean: 4 hour reperfusion; for Infarct/AAR (%) Mean / Infarct/LV (%) Mean: rat
Method: as §1
The animals were placed on mechanical ventilation and […]. Once anesthetized, the animal was placed in a right lateral recumbency, an arterial catheter or polyethylene tube was placed in the carotid artery for monitoring blood pressure and a thoracotomy was performed. The left coronary artery (LCA) was identified. A ligature was placed around the LCA and the vessel was ligated. The LCA was maintained occluded for 29 to 43 minutes. Occlusion of the vessel was verified via blanching of the heart and via ST interval changes. At the end of the occlusion period, the knot was loosened leaving the ligature in place, and the vessel was allowed to reperfuse for 3 hours 27 minutes to 4 hours 51 minutes. Following infarct, a chest tube was placed, the deep and superficial muscle layers were sutured at the surgical incision, and the skin was closed with staples. The chest tube was removed after spontaneous respiration was established. In Phase A, the animals were recovered from anesthesia and evaluated for 4 days. In Phase B, animals were maintained under anesthesia for 3 hours 27 minutes to 4 hours 51 minutes prior to being submitted to necropsy.
In Phase B, Compound #6 was administered once on Day 0 via intravenous infusion at dose levels of 0.2 and 2 mg/kg. The doses were administered at a dose volume of 1 mL/kg (0.05 [2 mg/kg] or 0.033 [0.2 mg/kg] mL/kg/minute). Two control groups received the vehicle (saline) or the vehicle for Compound #6 (10% (w/v) 2-hydroxypropyl-beta-cyclodextrin and 100 mM sodium chloride in deionized water) in the same manner as the 2 mg/kg treated group. The vehicles and 2 mg/kg Compound #6 were administered intravenously via a slow infusion starting 3 to 14 minutes prior to reperfusion and continuing for 20 minutes to 20 minutes and 32 seconds, which was approximately 6 to 17 minutes after reperfusion (depending on the infusion start time). The 0.2 mg/kg Compound #6 was administered intravenously via a slow infusion starting 10 minutes prior to reperfusion and continuing for 30 minutes to 30 minutes and 30 seconds, which was approximately 20 minutes after reperfusion. The positive control article, Erythropoietin, was administered at 5000 IU/kg via a bolus intravenous injection. The positive control article dose was administered at a dose volume of 2.5 mL/kg. The positive control was administered via a 3 to 60 second injection at 5 minutes prior to reperfusion.
After LAD reperfusion (4 hours), the animals were euthanized by an intraperitoneal injection of sodium pentobarbital followed by exsanguination via severing the abdominal vena cava. The heart was flushed with heparinized Lactated Ringers Solution (LRS) until clear of blood and the LAD was tied off using the same ligature used to occlude the vessel and Evan Blue dye was injected. The heart was weighed and breadloafed (4-5 sections per animal). […]

[3] = system: model of ischemia/reperfusion in the CD rat; assay: Rat model of ischemia/reperfusion, cardiac Troponin I concentration (Phase B); details: 0.2 and 2.0 mg/kg; prior to termination; not statistically different
Method: as §1
The animals in Phase B were monitored for selected cardiovascular endpoints from at least 15 minutes prior to acute myocardial infarction until at approximately 1 hour post reperfusion. […]
In Phase B, cardiac troponin I evaluations were conducted at 3 to 54 minutes prior to coronary artery occlusion and prior to termination on all animals. […] The samples were stored frozen at −50 to −90° C. until analyzed.

[4] = system: CD rat; assay: Toxicity evaluation in rat after myocardial ischemia (Phase A: mortality, clinical observations, body weights); details: dose levels up to 2 mg/kg following myocardial ischemia
Method: This study was conducted to evaluate the effects of the Compound #6 on cardiac function, infarct size, and Troponin I levels in a model of ischemia/reperfusion in the CD® (CR1CD® (SD)) rat. Phase A was conducted for toxicity evaluation purposes. In Phase B (the efficacy phase), two treatment groups of eight male rats were administered Compound #6 at dose levels of 0.2 and 2 mg/kg via intravenous infusion following myocardial infarction. […]
The animals were placed on mechanical ventilation and not intubated. […] In Phase A, the animals were recovered from anesthesia and evaluated for 4 days. […]
In Phase A, body weights for all animals were measured and recorded at receipt, prior to randomization, just prior to surgery, and daily for 3 days during the study. In Phase B, body weights for all animals were measured and recorded at receipt, prior to each randomization as applicable, and just prior to surgery, except that a body weight was not recorded prior to randomization for the animals received in the second shipment. In both phases, the body weights recorded at receipt and prior to randomization are not reported but are maintained in the study file.

Compound: Cc1ccc(CN(CCN(Cc2ccc(C)cn2)Cc2ccc(C)cn2)Cc2ccc(C)cn2)nc1 [Compound #6]
- differences in mortality rates between saline animals and treated animals (Phase B) ([1]; 0.2 and 2 mg/kg vs saline): suggest a cardioprotective effect
- animals that died between 3 and 4 hours post reperfusion (Phase B) ([1]; Group 5, 0.2 mg/kg): two
- Infarct/AAR (%) Mean ([2]; 0.2 mg/kg intravenous infusion): 22.2±5.24%
- Infarct/AAR (%) Mean ([2]; 0.2 mg/kg intravenous infusion, listed as Comp #6): 22^b %
- Infarct/LV (%) Mean ([2]; 0.2 mg/kg intravenous infusion): 7%
- Infarct/AAR (%) Mean ([2]; 2 mg/kg intravenous infusion): 19.1±7.38%
- Infarct/AAR (%) Mean ([2]; 2 mg/kg intravenous infusion, listed as Comp #6): 19^b %
- Infarct/LV (%) Mean ([2]; 2 mg/kg intravenous infusion): 7%
- infarct size following ischemia-reperfusion injury, in words ([2]; either 0.2 or 2.0 mg/kg IV as an infusion, 30 minute ischemia, vs saline and vehicle controls): significant decrease in infarct size
- Troponin I (TnI) levels versus saline and vehicle control animals [3]: substantially lower TnI levels than both saline and vehicle control animals; also recorded: substantially lower, but not significantly lower
- toxicity in the rat (overall conclusion) [4]: not associated with any toxicity
